Results as given in patent publication US8247372B2 (University of Southampton, priority 2006, dated 2012).

Experiments:
[1] = system: MCF7 breast, A2780 ovarian and PC3 and LNCAP prostate cancer cells; assay: CyQuant cell proliferation assay (Activity Assay 2); format: cell-based; details: Homo sapiens; cell line not given; read-out: Cell growth inhibition IC50
Protocol: Typically in this embodiment, said assay is performed using the CyQuant™ assay system (Moelcular Probes, Inc. USA).

[2] = system: HDAC (Hela Nuclear Extract); assay: In vitro HDAC fluorescent activity assay (Activity Assay 1); details: read-out: Inhibition of HDAC activity IC50, compounds reduced with DTT prior to analysis
Protocol: In vitro HDAC assays were performed using a HDAC fluorescent activity assay kit (Biomol, UK) according to the manufacturer's instructions. Compounds were reduced prior to analysis; 1 mM compound was reduced with 30 mM DTT in DMSO overnight at room temperature, protected from light. Reactions were then set up in a 96-well plate. […] Serial dilutions were set up for each compound. Reactions containing Hela extract only and assay buffer only were also set up. 25 μl diluted Fluor de LYS™ substrate (100-fold in assay buffer) was added to each reaction, which were then incubated at 37° C. for 1 hour. The reaction was stopped by addition of 50 μl Fluor de LYS™ Developer (20-fold dilution in assay buffer, plus TSA diluted 100-fold). […] Inhibition of in vitro HDAC activity was determined for mean values of duplicate samples as percentages relative to HeLa extract only reactions. IC50 values were calculated using GraphPad Prism software.

[3] = system: TNFα secretion from PBMCs; assay: TNF-α immunoassay in LPS-stimulated PBMCs (Activity Assay 3); details: normalized to 10 pg LPS alone (=100.00)
Protocol: TNF-α immunoassays were carried out using the Quantikine® Human TNF-α assay kit (R&D systems, Abingdon UK) according to the manufacturer's instructions. […] Compounds were added 1 hour later in volumes of 100 μl at 6× final concentration. Five hours later, lipopol ysaccharide (LSP, Sigma, Poole, UK) was added in a volume of 10 μl at 60× final concentration plates were mixed and left overnight at 37° C. 5% CO2. Plates were centrifuged and cell supernatant was transferred to a new plate. The Quantikine® assay reagents and standards were prepared according to the manufacturer instructions. The Quantikine® assay plate was prepared by adding 50 μl of assay dilutent RD1F into each well. This was followed by 200 μl of standard or 100 μl of calibrator dilutent plus 100 μl cell supernatant; this was incubated for 2 hours at room temperature (RT). The plate was washed using wash buffer 4 times. After the final wash the plate was tapped on clean paper towel to remove all residual buffer. 200 μl of TNF-α conjugate was added to each well and incubated for 1 hour at RT. The plate was then washed as before. The required amount of substrate solution was prepared by adding equal volumes of colour reagents A and B, protecting from light, 200 μl of this mix was added to each well and incubated for 20 mins at RT, protected from light. 50 μl of stop solution was added to each well in the same order as the substrate solution and the plate was read on a Biorad 680 96 well plate reader (Bio-Rad, Hemel Hempstead, UK) at 450 nm with λ correction at 570 nm. TNF-α levels were determined for mean values of duplicate samples using absorbance in nm, calibration zero values were subtracted from all results to correct for the addition of calibrator diluent in the assay.

Compound	IC50 [1]	IC50 [2]	other results
CC(C)C[C@H]1NC(=O)C[C@H]2/C=C/CCSSC[C@@H](NC1=O)C(=O)N[C@H](C(C)C)C(O)CC(=O)O2 (stereo in doubt) [Compound 7C, (E)-(1S,5R,6R,9S,20R)-5-Hydroxy-20-isobutyl-6-isopropyl-2-oxa-11,12-dithia-7,19,22-triaza-bicyclo[7.7.6]docos-15-ene-3,8,18,21-tetraone]	0.23 nM	11 nM	
CC(C)[C@H]1NC(=O)[C@H]2CSSCC/C=C/[C@H](CC(=O)N[C@H](Cc3ccccc3)C(=O)N2)OC(=O)C[C@@H]1O [Compound 7A]	0.07 nM	3.3 nM	TNFα Secretion (Normalized*) ([3]; Cells + 10 pg LPS + 0.025 nM compound): 63.90; TNFα Secretion (Normalized*) ([3]; Cells + 10 pg LPS + 0.05 nM compound): 58.12; TNFα Secretion (Normalized*) ([3]; Cells + 10 pg LPS + 0.1 nM compound): 45.45; TNFα Secretion (Normalized*) ([3]; Cells + 10 pg LPS + 0.2 nM compound): 31.11; TNFα Secretion (Normalized*) ([3]; Cells + 10 pg LPS + 0.4 nM compound): 18.66; TNFα Secretion (Normalized*) ([3]; Cells + 0.025 nM compound, no LPS): −0.26; TNFα Secretion (Normalized*) ([3]; Cells + 0.05 nM compound, no LPS): −0.06; TNFα Secretion (Normalized*) ([3]; Cells + 0.1 nM compound, no LPS): −0.08; TNFα Secretion (Normalized*) ([3]; Cells + 0.2 nM compound, no LPS): −0.03; TNFα Secretion (Normalized*) ([3]; Cells + 0.4 nM compound, no LPS): 0.13
CC(C)[C@H]1NC(=O)[C@H]2CSSCC/C=C/[C@H](CC(=O)N[C@H](Cc3cn(C(=O)OC(C)(C)C)c4ccccc34)C(=O)N2)OC(=O)C[C@@H]1O [Compound 7B, 3-((E)-(1S,5S,6R,9 S,20R)-5-Hydroxy-6-isopropyl-3,8,18,21-tetraoxo-2-oxa-11,12-dithia-7,19,22-triaza-bicyclo[7.7.6]docos-15-en-20-ylmethyl)-indole-1-carboxylic acid tert-butyl ester]	0.65 nM	436 nM	
C[C@H]1NC(=O)C[C@H]2/C=C/CCSSC[C@@H](NC1=O)C(=O)N[C@H](Cc1ccccc1)[C@@H](O)CC(=O)O2 [Compound 7D, (E)-(1S,5S,6R,9S,20R)-6-Benzyl-5-hydroxy-20-methyl-2-oxa-11,12-dithia-7,19,22-triaza-bicyclo[7.7.6]docos-15-ene-3,8,18,21-tetraone]	55 nM	18 nM	
O=C1C[C@H]2/C=C/CCSSC[C@@H](NC(=O)[C@@H](Cc3ccccc3)N1)C(=O)N[C@H](Cc1ccccc1)[C@@H](O)CC(=O)O2 [Compound 7E, (E)-(1S,5S,6R,9S,20R)-6,20-dibenzyl-5-hydroxy-2-oxa-11,12-dithia-7,19,22-triaza-bicyclo[7.7.6]docos-15-ene-3,8,18,21-tetraone]	3.2 nM	30 nM	
